Assay results as given in patent US8846951B2 (AbbVie Inc., priority 2009, dated 2014).
Where two headings read alike, the source gives them in different places.

Tests used:
5HT2B receptors = biological target: T1, 5HT2B receptors (Homo sapiens, UniProt P41595); assay: Human 5-HT2B functional high throughput screening assay in CHO-K1 cells (calcium flux); assay type: cell-based; details: for EC50: CHO-K1 cells, calcium flux
T1 construct: expressed in transfected cells; host or cells: CHO-K1 cells
T1 sequence (P41595 whole entry): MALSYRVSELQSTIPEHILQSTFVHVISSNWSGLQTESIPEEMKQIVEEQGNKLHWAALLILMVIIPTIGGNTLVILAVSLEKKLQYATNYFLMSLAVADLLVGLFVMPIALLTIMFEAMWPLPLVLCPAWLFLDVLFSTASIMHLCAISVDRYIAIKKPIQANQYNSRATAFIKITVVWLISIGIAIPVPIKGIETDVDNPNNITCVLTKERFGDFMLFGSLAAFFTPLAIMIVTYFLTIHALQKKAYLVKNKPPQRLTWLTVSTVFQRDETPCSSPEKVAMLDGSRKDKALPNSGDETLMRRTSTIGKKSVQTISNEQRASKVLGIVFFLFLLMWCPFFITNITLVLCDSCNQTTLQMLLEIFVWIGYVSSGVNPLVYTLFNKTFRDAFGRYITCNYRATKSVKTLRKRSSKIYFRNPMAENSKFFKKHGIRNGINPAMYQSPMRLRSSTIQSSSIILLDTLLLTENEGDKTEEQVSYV
Summary of the method: (§1)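 Agonism was measured as FLIPR fluorescence increase (480/530 nm, 25° C) with Ca4 dye and 2.5 mM probenecid, in serum-starved CHO-K1 lines overexpressing human 5-HT2C or 5-HT2B. Six-point 1:10 dilutions from 10 μM (0.2% DMSO final) were fitted by 4-parameter logistics. Responses were normalised to serotonin to give EC50 and % Emax.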

5HT2C receptors = biological target: T2, 5HT2C receptors (Homo sapiens, UniProt P28335); assay: Human 5-HT2C functional high throughput screening assay in CHO-K1 cells (calcium flux); assay type: cell-based; design: expressed in transfected cells; host or cells: CHO-K1 cells; details: for EC50: CHO-K1 cells, calcium flux; for Emax: CHO-K1, 5-HT2C, maximum functional response as percentage relative to the effect of serotonin
T2 sequence (P28335 33-458): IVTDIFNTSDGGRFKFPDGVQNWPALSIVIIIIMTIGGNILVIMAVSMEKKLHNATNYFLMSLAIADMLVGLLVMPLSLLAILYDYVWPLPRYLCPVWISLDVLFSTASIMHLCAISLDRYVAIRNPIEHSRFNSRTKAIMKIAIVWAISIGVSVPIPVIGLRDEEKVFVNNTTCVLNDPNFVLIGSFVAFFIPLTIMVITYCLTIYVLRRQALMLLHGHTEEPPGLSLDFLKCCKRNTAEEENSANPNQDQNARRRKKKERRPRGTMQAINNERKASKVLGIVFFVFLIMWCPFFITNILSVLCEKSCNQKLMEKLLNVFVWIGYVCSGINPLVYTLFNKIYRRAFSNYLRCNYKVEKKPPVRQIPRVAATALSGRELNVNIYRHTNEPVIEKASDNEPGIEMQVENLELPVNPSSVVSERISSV
Summary of the method: as §1

[1] = 5-HT2B agonist activity, read-out: EC50
[2] = 5-HT2B, maximum functional response as percentage relative to the effect of serotonin
[3] = 5-HT2C agonist activity, read-out: EC50

Row | SMILES | EC50 (5HT2B receptors; [1]) [nM] | Emax (5HT2B receptors; [2]) | EC50 (5HT2C receptors; [3]) [nM] | Emax (5HT2C receptors; read-out: Emax) [%] | EC50 (5HT2B receptors; EC50, 5-HT2B agonist activity) [nM] | Emax (5HT2C receptors) [%] | EC50 (5HT2C receptors; EC50, 5-HT2C agonist activity) [nM] | Emax (5HT2B receptors; CHO-K1) [%]
1 | CN1C[C@H]2CNC(=O)c3cc(OCc4ccccc4F)ccc3[C@@H]2C1 (relative stereo) [Example 164, Trans-8-(2-fluorobenzyloxy)-2-methyl-1,2,3,3a,4,5-hexahydrobenzo[e]pyrrolo[3,4-c]azepin-6(10bH)-one] | > 10000 | inactive | 700 | 50 | – | – | – | –
2 | CC(C)=Cc1ccc2c(c1)C(=O)NC[C@@H]1CN(C)C[C@@H]21 (relative stereo) [Example 197, Trans-2-methyl-8-(2-methylprop-1-enyl)-1,2,3,3a,4,5-hexahydrobenzo[e]pyrrolo[3,4-c]azepin-6(10bH)-one] | – | inactive | – | – | > 10000 | > 120 | 3 | –
3 | CN1C[C@@H]2CNC(=O)c3cc(OCc4ccc(F)cc4)ccc3[C@H]2C1 [Example 211, (3aS,10bS)-8-(4-Fluorobenzyloxy)-2-methyl-1,2,3,3a,4,5-hexahydrobenzo[e]pyrrolo[3,4-c]azepin-6(10bH)-one] | > 10000 | inactive | 2 | > 120 | – | – | – | –
4 | CN1C[C@H]2CNC(=O)c3cc(-c4ccc(C(F)(F)F)cc4)ccc3[C@@H]2C1 (relative stereo) [Example 79, Trans-2-methyl-8-(4-(trifluoromethyl)phenyl)-1,2,3,3a,4,5-hexahydrobenzo[e]pyrrolo[3,4-c]azepin-6(10bH)-one] | > 10000 | inactive | 30 | > 120 | – | – | – | –
5 | CCC(C)Oc1ccc2c(c1)C(=O)NC[C@@H]1CN(C)C[C@@H]21 (relative stereo) [Example 170, Trans-8-sec-butoxy-2-methyl-1,2,3,3a,4,5-hexahydrobenzo[e]pyrrolo[3,4-c]azepin-6(10bH)-one] | – | inactive | – | – | > 10000 | 120 | 70 | –
6 | Cc1cc2c(cc1F)C(=O)NC[C@@H]1CNC[C@H]21 (relative stereo) [Example 279, Cis-8-fluoro-9-methyl-1,2,3,3a,4,5-hexahydrobenzo[c]pyrrolo[3,4-e]azepin-6(10bH)-one] | – | – | – | – | 900 | > 120 | 60 | 90
7 | COc1ccc(-c2ccc3c(c2)C(=O)NC[C@@H]2CN(C)C[C@@H]32)cc1 [Example 159, (3aR,10bR)-8-(4-Methoxyphenyl)-2-methyl-1,2,3,3a,4,5-hexahydrobenzo[e]pyrrolo[3,4-c]azepin-6(10bH)-one] | > 10000 | inactive | – | 110 | – | – | – | –
8 | COc1ccccc1CCOc1ccc2c(c1)C(=O)NC[C@@H]1CNC[C@@H]21 (relative stereo) [Example 173, Trans-8-(2-methoxyphenethoxy)-1,2,3,3a,4,5-hexahydrobenzo[e]pyrrolo[3,4-c]azepin-6(10bH)-one] | > 10000 | inactive | 20 | > 120 | – | – | – | –
9 | O=C1NC[C@@H]2CN(Cc3ccccc3)C[C@H]2c2ccc(OCCc3ccccc3)cc21 (relative stereo) [Example 121, Trans-2-benzyl-8-phenethoxy-1,2,3,3a,4,5-hexahydrobenzo[e]pyrrolo[3,4-c]azepin-6(10bH)-one] | > 10000 | inactive | 200 | 120 | – | – | – | –
10 | CN1C[C@@H]2CNC(=O)c3cc(OCc4ccc(F)c(F)c4)ccc3[C@H]2C1 [Example 210, (3aS,10bS)-8-(3,4-Difluorobenzyloxy)-2-methyl-1,2,3,3a,4,5-hexahydrobenzo[e]pyrrolo[3,4-c]azepin-6(10bH)-one] | > 10000 | inactive | 2 | > 120 | – | – | – | –
11 | Fc1ccc2c(c1)[C@H]1CNC[C@@H]1CCO2 (relative stereo) [Example 286, Trans-9-fluoro-2,3,3a,4,5,10b-hexahydro-1H-[1]benzoxepino[4,5-c]pyrrole] | – | – | – | – | 50 | 90 | 300 | 60
12 | CC(=O)c1cccc(-c2ccc3c(c2)C(=O)N(C)C[C@@H]2CN(C)C[C@@H]32)c1 (relative stereo) [Example 191, Trans-8-(3-acetylphenyl)-2,5-dimethyl-1,2,3,3a,4,5-hexahydrobenzo[e]pyrrolo[3,4-c]azepin-6(10bH)-one] | > 10000 | inactive | 40 | 110 | – | – | – | –
13 | CC(C)COc1ccc2c(c1)C(=O)NC[C@@H]1CN(C)C[C@@H]21 (relative stereo) [Example 172, Trans-8-isobutoxy-2-methyl-1,2,3,3a,4,5-hexahydrobenzo[e]pyrrolo[3,4-c]azepin-6(10bH)-one] | – | inactive | – | – | > 10000 | > 120 | 60 | –

Second part, led by results:

Row | EC50 (5HT2B receptors; [1]) [nM] | Emax (5HT2B receptors; [2]) | EC50 (5HT2C receptors; [3]) [nM] | Emax (5HT2C receptors; read-out: Emax) [%] | SMILES | EC50 (5HT2B receptors; EC50, 5-HT2B agonist activity) [nM] | Emax (5HT2C receptors) [%] | EC50 (5HT2C receptors; EC50, 5-HT2C agonist activity) [nM] | Emax (5HT2B receptors; CHO-K1) [%]
14 | > 10000 | inactive | 400 | > 120 | CN1C[C@H]2CNC(=O)c3cc(-c4ccc5c(c4)C(=O)CC5)ccc3[C@@H]2C1 (relative stereo) [Example 251, Trans-2-methyl-8-(3-oxo-2,3-dihydro-1H-inden-5-yl)-1,2,3,3a,4,5-hexahydrobenzo[c]pyrrolo[3,4-e]azepin-6(10bH)-one] | – | – | – | –
15 | > 10000 | inactive | 3 | 95 | Cc1cc(-c2ccc3c(c2)C(=O)NC[C@@H]2CN(C)C[C@@H]32)ccc1F (relative stereo) [Example 314, Trans-8-(4-fluoro-3-methylphenyl)-2-methyl-2,3,3a,4,5,10b-hexahydropyrrolo[3,4-d][2]benzazepin-6(1H)-one] | – | – | – | –
16 | > 10000 | inactive | 10 | 100 | COc1cc(F)ccc1-c1ccc2c(c1)C(=O)NC[C@@H]1CN(C)C[C@@H]21 (relative stereo) [Example 299, Trans-8-(4-fluoro-2-methoxyphenyl)-2-methyl-2,3,3a,4,5,10b-hexahydropyrrolo[3,4-d][2]benzazepin-6(1H)-one] | – | – | – | –
17 | > 10000 | inactive | 70 | 90 | O=S(=O)(c1ccc(Cl)c(Cl)c1)N1Cc2cccnc2[C@@H]2CNC[C@H]2C1 (relative stereo) [Example 334, Trans-6-[(3,4-dichlorophenyl)sulfonyl]-5,6,7,7a,8,9,10,10a-octahydropyrido[3,2-c]pyrrolo[3,4-e]azepine] | – | – | – | –
18 | > 10000 | inactive | 3 | 90 | CN1C[C@H]2CNC(=O)c3cc(-c4ccc5c(c4)CCO5)ccc3[C@@H]2C1 (relative stereo) [Example 321, Trans-8-(2,3-dihydro-1-benzofuran-5-yl)-2-methyl-2,3,3a,4,5,10b-hexahydropyrrolo[3,4-d][2]benzazepin-6(1H)-one] | – | – | – | –
19 | > 10000 | inactive | 800 | 70 | Fc1ccc(-c2cccc3c2NCC[C@@H]2CNC[C@@H]32)cc1 (relative stereo) [Example 401, Trans-7-(4-fluorophenyl)-1,2,3,3a,4,5,6,10b-octahydropyrrolo[3,4-d][1]benzazepine] | – | – | – | –
20 | > 10000 | inactive | 50 | 100 | COc1ccc(F)cc1-c1ccc2c(c1)C(=O)NC[C@@H]1CN(C)C[C@@H]21 (relative stereo) [Example 300, Trans-8-(5-fluoro-2-methoxyphenyl)-2-methyl-2,3,3a,4,5,10b-hexahydropyrrolo[3,4-d][2]benzazepin-6(1H)-one] | – | – | – | –
21 | > 10000 | inactive | 2 | 90 | COc1ccc(-c2ccc3c(c2)C(=O)NC[C@H]2CN(C)C[C@H]32)c(F)c1 [Example 325, (3aS,10bS)-8-(2-Fluoro-4-methoxyphenyl)-2-methyl-2,3,3a,4,5,10b-hexahydropyrrolo[3,4-d][2]benzazepin-6(1H)-one] | – | – | – | –
22 | – | inactive | 2 | – | C[C@H](O)c1cccc(-c2ccc3c(c2)C(=O)NC[C@H]2CN(C)C[C@H]32)c1 [Example 293, (3aS,10bS)-8-{3-[(1S)-1-Hydroxyethyl]phenyl}-2-methyl-2,3,3a,4,5,10b-hexahydropyrrolo[3,4-d][2]benzazepin-6(1H)-one] | – | – | – | –
23 | > 10000 | inactive | 100 | > 120 | O=C1NC[C@@H]2CNC[C@H]2c2ccc(C3CCOCC3)cc21 (relative stereo) [Example 265, Trans-8-(tetrahydro-2H-pyran-4-yl)-1,2,3,3a,4,5-hexahydrobenzo[c]pyrrolo[3,4-e]azepin-6(10bH)-one] | – | – | – | –
